Laboratory results from BigSolDB 2.1.

O=P(CCCO)(CCCO)CCCO
Settings	solubility (mole fraction)
in acetone, 293.15 K	0.0007
in acetone, 298.14 K	0.00101
in acetone, 303.16 K	0.00151
in acetone, 308.21 K	0.00217
in acetone, 313.17 K	0.00303
in acetone, 318.12 K	0.00425
in acetone, 323.15 K	0.00593
in ethanol, 298.12 K	0.0226
in ethanol, 303.22 K	0.0286
in ethanol, 308.17 K	0.036
in ethanol, 313.1 K	0.0456
in ethanol, 318.08 K	0.0569
in ethanol, 323.11 K	0.0718
in ethanol, 328.16 K	0.0919
in isobutanol, 293.11 K	0.0122
in isobutanol, 298.21 K	0.0154
in isobutanol, 303.13 K	0.019
in isobutanol, 308.15 K	0.0234
in isobutanol, 313.17 K	0.0291
in isobutanol, 318.14 K	0.0357
in isobutanol, 323.23 K	0.0436
in isopropanol, 298.13 K	0.0155
in isopropanol, 303.21 K	0.0187
in isopropanol, 308.15 K	0.0224
in isopropanol, 313.17 K	0.027
in isopropanol, 318.19 K	0.0321
in isopropanol, 323.11 K	0.0386
in isopropanol, 328.18 K	0.0465
in methanol, 298.11 K	0.0527
in methanol, 303.15 K	0.0702
in methanol, 308.18 K	0.091
in methanol, 313.1 K	0.115
in methanol, 318.22 K	0.144
in methanol, 323.14 K	0.176
in methanol, 328.11 K	0.21
in n-butanol, 298.13 K	0.011
in n-butanol, 303.21 K	0.0138
in n-butanol, 308.11 K	0.0163
in n-butanol, 313.17 K	0.02
in n-butanol, 318.15 K	0.0252
in n-butanol, 323.1 K	0.0302
in n-butanol, 328.23 K	0.0369
in n-propanol, 298.16 K	0.0369
in n-propanol, 303.11 K	0.0438
in n-propanol, 308.13 K	0.0517
in n-propanol, 313.12 K	0.062
in n-propanol, 318.16 K	0.0731
in n-propanol, 323.21 K	0.0866
in n-propanol, 328.18 K	0.102
